Counter-ions that a name gives are not always drawn.
Tests used:
Type in all cases: biochemical
Conditions in all cases: FDA-approved drug screen; compared to DMSO
recombinant PRL-1 = target: T1, recombinant PRL-1 (Homo sapiens, UniProt Q93096); assay: In vitro phosphatase assay (DiFMUP hydrolysis), PRL-1; note: test concentration or dose not given here
T1 construct: 6xHis (N, cleaved yes); made in house; host or cells: E. coli One Shot BL21 Star
T1 sequence (Q93096 1-173): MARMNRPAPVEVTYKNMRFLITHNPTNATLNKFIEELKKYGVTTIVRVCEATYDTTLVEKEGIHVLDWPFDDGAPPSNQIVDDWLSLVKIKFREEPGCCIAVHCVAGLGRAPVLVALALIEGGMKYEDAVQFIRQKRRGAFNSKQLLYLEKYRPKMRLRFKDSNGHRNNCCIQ

recombinant PRL-2 = target: T2, recombinant PRL-2 (Homo sapiens, UniProt Q12974); assay: In vitro phosphatase assay (DiFMUP hydrolysis), PRL-2;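 note: PRL-2 activity read as DiFMUP hydrolysis after 20 min at room temperature with drug, enzyme first pre-reduced at 4 °C for 20 min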
T2 construct: 6xHis (N, cleaved yes); made in house; host or cells: E. coli One Shot BL21 Star
T2 sequence (Q12974 1-167): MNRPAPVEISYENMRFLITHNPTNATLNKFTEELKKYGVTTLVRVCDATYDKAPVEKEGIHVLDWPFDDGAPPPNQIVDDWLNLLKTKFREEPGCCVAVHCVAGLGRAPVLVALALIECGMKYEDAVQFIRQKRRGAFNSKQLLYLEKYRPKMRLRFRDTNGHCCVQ

recombinant PRL-3 = target: T3, recombinant PRL-3 (Homo sapiens, UniProt O75365); assay: In vitro phosphatase assay (DiFMUP hydrolysis), PRL-3; note: test concentration or dose not given here
T3 construct: 6xHis (N, cleaved yes); made in house; host or cells: E. coli One Shot BL21 Star
T3 sequence (O75365 whole entry): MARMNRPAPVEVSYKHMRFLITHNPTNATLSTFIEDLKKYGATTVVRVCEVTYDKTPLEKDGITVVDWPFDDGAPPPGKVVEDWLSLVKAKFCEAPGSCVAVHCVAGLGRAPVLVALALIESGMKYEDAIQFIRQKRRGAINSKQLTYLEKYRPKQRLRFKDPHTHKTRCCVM

Structure (SMILES) | % Phosphatase Activity (compared to DMSO) PRL-1 (recombinant PRL-1) [%] | % Phosphatase Activity (compared to DMSO) PRL-2 (recombinant PRL-2) [%] | % Phosphatase Activity (compared to DMSO) PRL-3 (recombinant PRL-3) [%]
CCCCN1CCCC[C@H]1C(=O)Nc1c(C)cccc1C [Levobupivacaine HCl] | 91 | 108 | 72
C[C@H]1COc2c(N3CCN(C)CC3)c(F)cc3c(=O)c(C(=O)O)cn1c23 [Levofloxacin hydrate] | 322 | 306 | 316
C[C@H]1COc2c(N3CCN(C)CC3)c(F)cc3c(=O)c(C(=O)O)cn1c23 [Levofloxacin] | 264 | 314 | 238
C#C[C@]1(O)CC[C@H]2[C@@H]3CCC4=CC(=O)CC[C@@H]4[C@H]3CC[C@@]21CC [Levonorgestrel] | 94 | 101 | 78
C[C@@H]1CC(=O)NN=C1c1ccc(NN=C(C#N)C#N)cc1 [Levosimendan] | 76 | 58 | 69
CCN1CCC[C@H]1CNC(=O)c1cc(S(N)(=O)=O)ccc1OC [Levosulpiride] | 98 | 103 | 84
CC1(C)Cc2c(-c3ccccc3)c(-c3ccc(Cl)cc3)c(CC(=O)O)n2C1 [Licofelone] | 80 | 85 | 69
CCN(CC)CC(=O)Nc1c(C)cccc1C [Lidocaine hydrochloride] | 97 | 88 | 84
CC#CCn1c(N2CCC[C@@H](N)C2)nc2c1c(=O)n(Cc1nc(C)c3ccccc3n1)c(=O)n2C [Linagliptin] | 115 | 131 | 100
CCC[C@@H]1C[C@@H](C(=O)N[C@@H]([C@H]2O[C@H](SC)[C@H](O)[C@@H](O)[C@H]2O)[C@@H](C)O)N(C)C1 [Lincomycin HCl] | 109 | 111 | 76
CC(=O)NC[C@H]1CN(c2ccc(N3CCOCC3)c(F)c2)C(=O)O1 [Linezolid] | 98 | 97 | 89
Cc1ccc(F)c(NC(=O)Nc2ccc(-c3cccc4[nH]nc(N)c34)cc2)c1 [Linifanib (ABT-869)] | 133 | 151 | 133
NCCCC[C@H](N[C@@H](CCc1ccccc1)C(=O)O)C(=O)N1CCC[C@H]1C(=O)O [Lisinopril] | 100 | 86 | 93
C[C@H](CCC(=O)O)[C@H]1CC[C@H]2[C@@H]3CC[C@@H]4C[C@H](O)CC[C@]4(C)[C@H]3CC[C@]12C [Lithocholic acid] | 82 | 75 | 73
CCn1cc(C(=O)O)c(=O)c2cc(F)c(N3CCNC(C)C3)c(F)c21 (stereo not drawn) [Lomefloxacin HCl] | 123 | 121 | 110
COc1ccc(CN2CCN(C(c3ccc(F)cc3)c3ccc(F)cc3)CC2)c(OC)c1OC.Cl.Cl [Lomerizine HCl] | 97 | 118 | 84
O=C(NC1CCN(CCCCC2(C(=O)NCC(F)(F)F)c3ccccc3-c3ccccc32)CC1)c1ccccc1-c1ccc(C(F)(F)F)cc1 [Lomitapide Mesylate] | 129 | 119 | 125

Structure (SMILES) | % Phosphatase Activity (compared to DMSO) PRL-1 (recombinant PRL-1) [%] | % Phosphatase Activity (compared to DMSO) PRL-2 (recombinant PRL-2) [%] | % Phosphatase Activity (compared to DMSO) PRL-3 (recombinant PRL-3) [%]
O=C(NC1CCN(CCCCC2(C(=O)NCC(F)(F)F)c3ccccc3-c3ccccc32)CC1)c1ccccc1-c1ccc(C(F)(F)F)cc1 [Lomitapide] | 124 | 118 | 117
O=NN(CCCl)C(=O)NC1CCCCC1 [Lomustine] | 96 | 105 | 94
NC(=O)N1CCC(CC(=O)N2CCC([C@H]3c4ncc(Br)cc4CCc4cc(Cl)cc(Br)c43)CC2)CC1 [Lonafarnib] | 97 | 103 | 97
O=C(O)c1nn(Cc2ccc(Cl)cc2Cl)c2ccccc12 [Lonidamine] | 102 | 106 | 85
CN(C)C(=O)C(CCN1CCC(O)(c2ccc(Cl)cc2)CC1)(c1ccccc1)c1ccccc1 [Loperamide HCl] | 105 | 99 | 81
Cc1cccc(C)c1OCC(=O)N[C@@H](Cc1ccccc1)[C@@H](O)C[C@H](Cc1ccccc1)NC(=O)[C@H](C(C)C)N1CCCNC1=O [Lopinavir] | 90 | 101 | 62
CCOC(=O)N1CCC(=C2c3ccc(Cl)cc3CCc3cccnc32)CC1 [Loratadine] | 89 | 90 | 65
CN1C(C(=O)Nc2ccccn2)=C(O)c2sc(Cl)cc2S1(=O)=O [Lornoxicam] | 73 | 84 | 81
CCCCc1nc(Cl)c(CO)n1Cc1ccc(-c2ccccc2-c2nnn[n-]2)cc1.[K+] [Losartan Potassium (DuP 753)] | 94 | 93 | 71
Cc1c(F)cc(C(=O)NC2CC2)cc1-c1ccc(C(=O)NCC(C)(C)C)cn1 [Losmapimod (GW856553X)] | 91 | 66 | 103
CCOC(=O)O[C@]1(C(=O)OCCl)CC[C@H]2[C@@H]3CCC4=CC(=O)C=C[C@]4(C)[C@H]3[C@@H](O)C[C@@]21C [Loteprednol etabonate] | 100 | 89 | 82
CC[C@H](C)C(=O)O[C@H]1C[C@@H](C)C=C2C=C[C@H](C)[C@H](CC[C@@H]3C[C@@H](O)CC(=O)O3)[C@H]21 [Lovastatin] | 89 | 93 | 87
CN1CCN(C2=Nc3ccccc3Oc3ccc(Cl)cc32)CC1 [Loxapine Succinate] | 96 | 110 | 90
CC(C(=O)O)c1ccc(CC2CCCC2=O)cc1 (stereo not drawn) [Loxoprofen] | 109 | 83 | 102
N#C/C(=C1/SC[C@@H](c2ccc(Cl)cc2Cl)S1)n1ccnc1 [Luliconazole] | 98 | 90 | 83
Cn1cnc2c(F)c(Nc3ccc(Br)cc3F)c(C(=O)NOCCO)cc21 [MEK162 (ARRY-162, ARRY-438162)] | 85 | 72 | 91

Reference: publication PMC8119466, “A screen of FDA-approved drugs identifies inhibitors of protein tyrosine phosphatase 4A3 (PTP4A3 or PRL-3)” (Scientific Reports, 2021)
